Results on three molecules are retold here after US8288374B2, “Medicinal composition containing benzo[a]phenoxazine compound as the active ingredient for prevention or treatment of protozoal disease” (Hoshi University, priority 2008, dated 2012).

Assay [1] concerns Rat L6 cells. Briefly: Growth inhibition test of rat L6 cells. The class given is cell-based. The procedure:
Rat derived-L6 cells (rat skeletal myoblast cell) were used. A medium, RPMI1640 medium was supplemented so that L-glutamin (200 mM) is 1%, and fetal bovine serum 10%, and the medium was cultured under CO2 concentration 5%, at 37° C.
The compounds of the present invention and the control drugs to be used in the test were dissolved in DMSO, to make a test solution of a predetermined concentration.
Pre-culture was conducted and medium containing cells which have entered the logarithmic growth phase was taken to wells of a 96-well culture plate. Then, a test solution containing drug of a predetermined concentration or a drug-free DMSO was added. Test solutions were taken by duplicates.
Culture plate was cultured for 72 hours in an incubator, to test the growth inhibition activity. Test was conducted as follows. 10 μL of Alamar Blue aqueous solution was added to each well, and the resultant was further cultured for 2 hours. Next, the culture plate was placed on a fluorescent micro-plate reader (Spectramax Gemeni XS; US Molecular Device), radiated at an excited wavelength of 536 nm. Fluorescent intensity was measured at 588 nm, and residual rate of L6 cells of the test solution added group, and that of the control was calculated.
Growth inhibition rate (%)={(C−A)/(B−A)}×100 • A: Primary cell count • B: cell count of control, 3 days after • C: cell count of wells added with a sample, 3 days after 4. Determination of Drug Efficacy Against Chloroquine Resistant-Plasmodium

The test system of assay [2] is Plasmodium berghei NK65 strain. Put plainly: Cure test by oral administration to mice infected with malaria. The class given is in vivo. The conditions noted are these: for inhibition in vivo at 100 mg/kg: Plasmodium berghei, infected ICR mice, suppression vs control; for inhibition in vivo at 100 mg/kg / Days of survival: oral, 1 dose, 100 mg/kg; for Days of survival: mean days to death minus that of control mice; for Effectiveness in the in vivo malaria test, in words: oral administration to mice infected with rodent malaria. The protocol:
In this experiment, rodent malaria parasites (the Plasmodium berghei NK65 strain) were used.
The infected blood to be used was subcultured in ICR female SPF mice infected by intraperitoneal or tail vein administration at 4 to 6 weeks old (20 to 26 g). […] Thereafter, based on the number of red cells (cells/ml) and the rate of infection by the protozoans, the blood was diluted with phys'iological saline such that a density of […] malaria parasites/1 ml dose was attained. This was used for infection of uninfected mice (ICR female mice, 5 weeks old) in an amount of 0.2 ml/20 g body weight, through the tail vein (Day-0). The compound used in the test was dissolved in 10% DMSO solution (a mixture of 1 ml of DMSO and 9 ml of 5% glucose solution).
Each group contained 4 mice, and the compound was orally administered to the mice 24 hours after their infection with malaria (Day-1), in an amount calculated such that 100 mg of the compound was administered per 1 kg of the body weight of a mouse. On the other hand, in terms of cases in which the amount was calculated such that 30 mg of the compound was administered per 1 kg of the body weight of a mouse, the oral administration was carried out a total of three times, that is, 24 hours (Day-1), 48 hours (Day-2) and 72 hours (Day-3) after the infection of malaria.
Blood was collected from the tails of each mouse 96 hours (Day-4) and 144 hours (Day-6) after the infection with malaria, and thin blood films were prepared. Under the microscope, the numbers of infection of malaria parasites in the group to which the compound was administered and the control group (to which the compound was not administered) were measured, and the rates of infection with malaria parasites (Parasitemia) were calculated.
From the rate of infection with malaria parasites calculated as above, the cure rate (Suppression) in the case of administration of the drug was calculated according to the following equation. Cure rate: Suppression (%)=(B−A)/B×100
A: Rate of infection with the protozoans in a mouse to which the present test compound was administered
B: Rate of infection with the parasites in a control mouse (to which the compound was not administered) Days of survival: MSD (day)=C−D
C: the average number of days from the date of infection with malaria to the date of death in the mice to which the present test compound was administered
D: The average number of days from the date of infection with malaria to the date of death in the 4 individuals of control mice (to which the compound was not administered)
Further, by observation of changes in the body weight, hair glossiness and the like of each mouse, side effects such as acute toxicity due to administration of the compound were evaluated.

The subject of assay [3] is Trypanosoma cruzi (Tulahuen C2C4 strain). Briefly: American trypanosome protozoa growth inhibition screening test. It is filed as cell-based. The protocol: In the present experiment, amastigote and trypomastigote infected with rat L6 cells of protozoa of Trypanosoma cruzi (Tulahuen C2C4 starin) were used. As medium used in the test, RPMI 1640 medium containing L6 cells was supplemented so that L-glutamine (200 mM) become 1%, fetal bovine serum becomes 10%, which was cultured under CO2 concentration 5%, at 37° C.
The compounds of the present invention to be used in the present test and the positive control drug (benznidazole) were dissolved in DMSO to make a test solution of a predetermined concentration.
A medium containing 5×10^3 protozoa was added to wells of a 96-well culture plate, and pre-cultured for 48 hours. After replacing the medium, test solution containing drug of a predetermined concentration or a drug-free DMSO was added. Test solutions were taken by duplicates.
After culturing the culture plate in an incubator for 96 hours, growth inhibition activity was tested. Test was conducted as follows. 50 μL of CPRG/Nonidet was added to each well, and allowed to rest for 2 to 6 hours. Next, the culture plate was placed on a fluorescent micro-plate reader. The absorbance was measured at 540 nm, and the trypanosome infection rate of the test solution added group and control group were calculated.
Growth inhibition rate (%)={1−(b−a)/(c−a)}×100 • a: early infection rate • b: infection rate when test solution was added • c: infection rate of the control

Setting [4] is: 96 h, read-out: Cure rate (%) Day-4.
The mark [5] stands for this setting: 144 h, read-out: Cure rate (%) Day-6.
[6] abbreviates: Table 2, unit inferred, 72 hours, read-out: Cytoxicity L6.
The mark [7] stands for this setting: Table 6, unit inferred, read-out: Trypanosoma cruzi.

Values after ≈ are worked out from the molar mass of the structure shown. Like-named read-outs stand apart in the source and are kept apart here.

For `CCN(CC)c1ccc2nc3c4ccccc4c(=Nc4ccc5ccccc5n4)cc-3oc2c1` [Compound 1H, N,N-Diethyl-5-(quinolin-2-ylimino)-5H-benzo[a]phenoxazin-9-amine], the EC50 came out at 30.1 µg/mL (≈ 67.8 µM) in assay [1] (Table 1, 72 hours, Alamar Blue, read-out: 50% Growth inhibition concentration Cytoxicity L6) and 3.31 µg/mL (≈ 7.45 µM) in assay [3] (Trypanosoma cruzi, Table 5, in rat L6 cells, 96 hours, CPRG/Nonidet, read-out: 50% Growth inhibition concentration Trypanosoma cruzi). Also, the values for the inhibition in vivo at 100 mg/kg in assay [2] (setting [4]) and in assay [2] (setting [5]) were 81% and 71%, respectively. The “Days of survival” value in assay [2] came to 4.3 days.
In the case of `CCN(CCNS(C)(=O)=O)c1cc(C)c2nc3c4ccccc4c(=Nc4ccncc4)cc-3oc2c1` [Compound 1R, N-Ethyl-N-(2-methansulfonamidylethyl)-11-methyl-5-(pyridine-4-ylimino)-5H-benzo[a]phenoxazin-9-amine], the EC50 was determined as 7.97 µg/mL (≈ 15.9 µM) in assay [1] (setting [6]) and 2.01 µg/mL (≈ 4.01 µM) in assay [3] (setting [7]). The results for the inhibition in vivo at 100 mg/kg in assay [2] (setting [4]) and in assay [2] (setting [5]) were 100% and 95.7%, respectively. Besides, the “Effectiveness in the in vivo malaria test, in words” value in assay [2] is “excellent cure effects”. For the same molecule, the “Days of survival” value in assay [2] is 15.7 days.
On to `CCN(CCNS(C)(=O)=O)c1cc(C)c2nc3c4ccccc4c(=Nc4ccccn4)cc-3oc2c1` [Compound 1S, N-Ethyl-N-(2-methansulfonamidylethyl)-11-methyl-5-(pyridine-2-ylimino)-5H-benzo[a]phenoxazin-9-amine], for which the figures for the EC50 in assay [1] (setting [6]) and in assay [3] (setting [7]) were 0.307 µg/mL (≈ 0.612 µM) and 0.376 µg/mL (≈ 0.75 µM), respectively. Further, the inhibition in vivo at 100 mg/kg in assay [2] (setting [4]) and in assay [2] (setting [5]) was 100% throughout. In addition, in assay [2], the “Effectiveness in the in vivo malaria test, in words” value is “excellent cure effects”. Besides, the “Days of survival” value in assay [2] was found to be 11.3 days.
